Laboratory results reported in patent EP2501821B1, “PROCESS FOR PRODUCING PRIMYCIN, PRIMYCIN COMPONENT(S), PRECURSORS AND METABOLITES THEREOF VIA FEMENTATION BY THE USE OF BACTERIAL SPECIES SACCHAROMONOSPORA AZUREA” (Pannonpharma Gyógyszergyártó Kft., priority 2009, dated 2011).

Legend:
Bacillus sp. = test: primycin MIC, antimicrobial spectrum re-evaluation; assay type: cell-based; details: culture collection strains
Excerpt: (§1) In our research leading to our new findings we assayed the antimicrobial spectrum of primycin in order to re-evaluate the minimal inhibitory concentration (MIC) values known from the literature and to determine the primycin susceptibility of new isolates. Comparative test results on strains of Gram-positive bacterial species of Microbial strain culture collection of PTE TTK BI Department of General and Environmental Microbiology were in agreement with the literature data with primycin MIC values of 0.06 mg/L for Staphylococcus sp. and 0.03 mg/L for Bacillus sp. respectively. Primycin MIC values higher than 1 mg/L for any of the Gram-positive strains tested were not detected.

Staphylococcus sp. = test: primycin MIC, antimicrobial spectrum re-evaluation; assay type: cell-based; details: culture collection strains
Excerpt: as §1

Gram-positive strains = test: primycin MIC, antimicrobial spectrum re-evaluation; assay type: cell-based, Gram-positive bacterial species; details: any of the Gram-positive strains tested
Excerpt: as §1

Gram-negative species = test: primycin antimicrobial spectrum re-evaluation; assay type: cell-based
Excerpt: as §1

[1] = tested on: strains of species belonging to Saccharomonospora genus; test: primycin MIC (primycin tolerance); assay type: cell-based
S. cyanea (44106) = test: primycin MIC (primycin tolerance); assay type: cell-based; details: S. cyanea DSM 44106
Method: (§2) Strains were grown for seven days and once the colonies were removed and extracted, they were tested for antimicrobial production in agar diffusion tests. […] For this comparison we repeatedly used the strains of the culture collection of Department which had preliminary been tested for primycin susceptibility. Our work hypothesis was further supported by our experience that a butanol-ethanol-water mixture (in the ratio of 1:1:2 respectively) which is an effective solvent of primycin was suitable for the extraction of the antibiotic. […] Thereafter we carried out shake flask fermentations with the Saccharomonospora sp. strains suitable for the process. Production results on shake flasks of the strains tested were congruent to their cultivations on solid media. […] Table 1. Primycin tolerance and antibiotic production of Saccharomonospora isolates. *: S. azurea strains identified and registered on the name S. caesia earlier: […]

S. glauca (43769) = test: primycin MIC (primycin tolerance); assay type: cell-based; details: S. glauca DSM 43769
Method: as §2

S. viridis (43017) = test: primycin MIC (primycin tolerance); assay type: cell-based; details: S. viridis DSM 43017
Method: as §2

S. xinjiangensis (44391) = test: primycin MIC (primycin tolerance); assay type: cell-based; details: S. xinjiangensis DSM 44391
Method: as §2

[2] = tested on: Saccharomonospora azurea (caesia) DSM 43044; test: primycin MIC (primycin tolerance); assay type: cell-based; details: S. azurea (caesia) DSM 43044
Method: as §2

[3] = tested on: Saccharomonospora azurea (caesia) DSM 43068; test: primycin MIC (primycin tolerance); assay type: cell-based; details: S. azurea (caesia) DSM 43068
Method: as §2

[4] = tested on: Saccharomonospora azurea (caesia) DSM 43680; test: primycin MIC (primycin tolerance); assay type: cell-based; details: S. azurea (caesia) DSM 43680
Method: as §2

[5] = tested on: Saccharomonospora azurea DSM 44631; test: primycin MIC (primycin tolerance); assay type: cell-based; details: S. azurea DSM 44631
Method: as §2

[6] = tested on: Saccharomonospora aurea strains; test: primycin MIC (primycin tolerance), summary statement; assay type: cell-based
Excerpt: As it is known that antibiotic-producing strains are less susceptible to the antibiotic produced by themselves and the primordials of the existing primycin-producing strain also was selected by primycin tolerance level to enhance their production capability, it has been suspected that lowered primycin susceptibility of Saccharomonospora azurea strains can be the outcome of the production of an antibiotic with a mode of action analogue to that of primycin. The literature concordantly states that primycin has a unique mode of action, therefore it could be suspected from our surprising findings that the antibiotic supposedly produced by these strains can be primycin itself. However, there is no literature on primycin production of Saccharomonospora azurea or any other presently accepted species of Saccharomonospora genera.

[7] = tested on: Staphylococcus aureus (50 strains); details: broth dilution assay; cited from earlier work
[8] = tested on: Staphylococcus epidermidis (77 strains); details: broth dilution assay; cited from earlier work
[9] = tested on: Streptococcus faecalis (76 strains); details: broth dilution assay; cited from earlier work
[10] = tested on: one strain of Listeria monocytogenes; details: broth dilution assay; cited from earlier work
[11] = in water; cited from earlier work
[12] = tested on: Gram-positive bacteria and Mycobacterium species; details: cited from earlier work
in vitro cell cultures = details: cited from earlier work

Substance: primycin
- MIC (Bacillus sp.): 0.03 µg/mL
- MIC (Staphylococcus sp.): 0.06 µg/mL
- MIC (Gram-positive strains): ≤ 1 µg/mL
- effectiveness (Gram-negative species): did not prove to be effective
- MIC [1]: 8 to 64 µg/mL
- Primycin MIC (S. cyanea (44106)): 8 µg/mL
- Primycin MIC (S. glauca (43769)): 8 µg/mL
- Primycin MIC (S. viridis (43017)): 0,5 mg/L
- Primycin MIC (S. xinjiangensis (44391)): 1 µg/mL
- Primycin MIC [2]: 64 µg/mL
- Primycin MIC [3]: 64 µg/mL
- Primycin MIC [4]: 64 µg/mL
- Primycin MIC [5]: 64 µg/mL
- MIC [6]: 64 µg/mL
- minimal inhibitory concentrations (MIC) [7]: 0.12 to 0.5 µg/mL
- minimal inhibitory concentrations (MIC) [8]: 0.12 to 0.5 µg/mL
- minimal inhibitory concentrations (MIC) [9]: 0.12 to 0.5 µg/mL
- minimal inhibitory concentrations (MIC) [10]: 0.12 to 0.5 µg/mL
- solubility [11]: poorly soluble in water
- bacteriostatic effect [12]: has bacteriostatic effect
- toxicity (in vitro cell cultures): not shown to be toxic
